Source: article PMC9482650, “Quantitative fragmentomics allow affinity mapping of interactomes” (Nature Communications, 2022)
Ends that are not written are not given here. * marks the point of attachment. Biotin = O=C1N[C@H]2[C@H](CS[C@H]2CCCCC(=O)*)N1; ttds = NCCCOCCOCCOCCCNC(=O)CCC(=O)*

How the values were obtained:
Type in all cases: binding, human
[1] = target: PDZ-proteins; experiment: Estimated PPI affinity, additive association constants of all PDZ sites;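 also: calculated estimate, not directly measured: domain-motif affinities from holdup assays, association constants summed over all PDZ sites, one motif bound at a time, weak interactions ignored, giving a lower limit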
Description: We used the previously generated domain-motif interactome, consisting of the composite affinities (i.e., taken from the most reliable holdup method; see above) to estimate affinities of PPIs. We assumed that a multidomain PDZ-protein can only interact with a single PBM at the same time (Eq. (4)):4 PDZ+PBM⇌(PDZ−PBM)site1,or(PDZ−PBM)site2,or(PDZ−PBM)siten
Using this approximation, as proposed by others before[45], the association constant of a multi-site interaction is the sum of the association constants of all sites (Eq. (5)):5 Ka,additive=[PDZ−PBM]site1+[PDZ−PBM]site2+…+[PDZ−PBM]siten/[PDZ]×[PBM]=∑Ka,site
The contribution of unmeasurable weak interactions was also neglected in the calculations.

[2] = test system: HaCat cell extract preys; experiment: PBM-AP-MS, PBM peptide baits
Experimental: (§1) HEK293T and HeLa cells were authenticated and found 100% identity to ATCC cat. CRL-3216 and ATCC cat. CCL-2, respectively. Jurkat and HaCat cell lines were not authenticated (original source: ECACC and Deutsches Krebsforschungszentrum DKFZ, respectively). HeLa cells were grown in DMEM (1 g/L glucose, Gibco) medium completed with 5% FCS and 40 μg/mL gentamicin, diluted every 3rd/4th day 1/10. HaCat cells were grown in DMEM (1 g/L glucose, Gibco) medium completed with 10% FCS and 40 μg/mL gentamicin, diluted every 3rd/4th day 1/4. Jurkat cells were grown in RPMI (Gibco) medium completed with 10% FCS and 40 μg/mL gentamicin, diluted every 3rd/4th day 1/12. All cells were kept at 37 °C and 5% CO2. For proteomics analyses cells were seeded on T-175 flasks. After they reached confluency, adherent cells were washed with PBS once and collected by scraping with ice-cold lysis buffer (Hepes-KOH pH 7.5 50 mM, NaCl 150 mM, Triton X-100 1%, complete EDTA-free protease inhibitor cocktail 1×, EDTA 2 mM, TCEP 5 mM, glycerol 10%). Jurkat cells were collected by 1000 g × centrifugation, washed once with PBS, then collected by 1000 g × 5 min centrifugation again and lysed in ice-cold lysis buffer. Lysates were sonicated 4 × 20 s with 1 s long pulses on ice, then incubated rotating at 4 °C for 30 min. Lysates were centrifuged at 12,000 rpm 4 °C for 20 min and supernatant was kept for further analysis. Concentration determination was carried out by standard Bradford method (Bio-Rad Protein Assay Dye Reagent #5000006) using BSA (MP BIomedicals #160069) as control on a Bio-Rad SmartSpec 3000 spectrophotometer instrument.
(§2) For PBM-AP-MS experiments, 30 μl streptavidin resin was mixed with biotin or peptide at 50–60 μM concentration in 6–6.5 resin volume for 60 min to achieve resin saturation. For PDZ-AP-MS experiments, 30 μl streptavidin resin was mixed with biotinylated MBP or MBP-PDZ at 40-50 μM concentration in >1000× resin volume for 60 min to achieve resin saturation. After saturation, resins were washed a single time (ten resin volume, holdup buffer), and were depleted with biotin (1 mM biotin, 5–10 resin volume, 10 min). Finally, resins were washed two times. 0.5 ml 2 mg/ml cell lysate was added to the dry resin (1 mg total input) and were incubated at 4 °C for 2 h. Then, the beads were washed three times with 10 resin volume buffer containing: 50 mM TRIS pH 8.5, 150 mM NaCl, 1% TritonX-100, 10× complete EDTA-free protease inhibitor cocktail, 2 mM EDTA, 1 mM TCEP. Then, the beads were washed two times with ten resin volume buffer containing: 50 mM TRIS pH 8.5, 150 mM NaCl, 1 mM TCEP. Finally, captured protein was eluted from the resin in two steps and the eluted fractions were pooled. For each elution the beads were incubated for 30 min with three resin volume buffer containing: 20 mM TRIS pH8.5, 100 mM NaCl, 500 μM TCEP, 8 M Urea. Between each step, the beads were separated by mild centrifugation and the supernatant was removed by gentle pipetting.
(§3) The samples were precipitated with TCA 20% overnight at 4 °C and centrifuged at 14,000 rpm for 10 min at 4 °C. The protein pellets were washed twice with 1 mL cold acetone and air dried. The protein extracts were solubilized in urea 8 M, reduced with 5 mM TCEP for 30 min, and alkylated with 10 mM iodoacetamide for 30 min in the dark. Double digestion was performed at 37 °C with 500 ng endoproteinase Lys-C for 4 h, followed by fourfold dilution and an overnight digestion with 500 ng trypsin. Peptide mixtures were then desalted on C18 spin-column and dried on Speed-Vacuum.
(§4) Samples were analyzed using an Ultimate 3000 nano-RSLC (Thermo Scientific, San Jose California) coupled in line with a LTQ-Orbitrap ELITE mass spectrometer via a nano-electrospray ionization source (Thermo Scientific, San Jose California). […]

[3] = test system: Jurkat cell extract preys; experiment: PBM-AP-MS, PBM peptide baits
Experimental: as §1, §2, §3, §4

HPV30E6 ({Biotin-ttds}-RHTTSTETAV)
final additive pKd ([1]; PDZ-protein AHNAK): 3.716
final additive pKd ([1]; PDZ-protein CASK): 3.5
final additive pKd ([1]; PDZ-protein DLG1): 5.729
final additive pKd ([1]; PDZ-protein InaDl): 4.166
final additive pKd ([1]; PDZ-protein LAP2): 4.458
final additive pKd ([1]; PDZ-protein LIN7C): 4.187
final additive pKd ([1]; PDZ-protein LNX2): 3.771
final additive pKd ([1]; PDZ-protein MAGI3): 5.357
final additive pKd ([1]; PDZ-protein MPP5): 3.5
final additive pKd ([1]; PDZ-protein MPP6): 3.5
final additive pKd ([1]; PDZ-protein MPP7): 3.5
final additive pKd ([1]; PDZ-protein NHERF2): 3.5
final additive pKd ([1]; PDZ-protein PDLIM2): 3.5
final additive pKd ([1]; PDZ-protein PDLIM5): 3.5
final additive pKd ([1]; PDZ-protein PDLIM7): 3.5
final additive pKd ([1]; PDZ-protein PSMD9): 3.5
final additive pKd ([1]; PDZ-protein SCRIB): 5.522
final additive pKd ([1]; PDZ-protein SNTB1): 5.102
final additive pKd ([1]; PDZ-protein SNTB2): 4.675
final additive pKd ([1]; PDZ-protein SNX27): 5.636
final additive pKd ([1]; PDZ-protein SYNJ2BP): 5.355
final additive pKd ([1]; PDZ-protein TX1B3): 4.653
Enrichment values compared to biotin controls ([2]; prey AHNAK2, PBM peptide bait): 1.2
Enrichment values compared to biotin controls ([2]; prey AHNAK, PBM peptide bait): 1.4
Enrichment values compared to biotin controls ([2]; prey DLG1, PBM peptide bait): 3.4
Enrichment values compared to biotin controls ([2]; prey GORASP2, PBM peptide bait): 0.566
Enrichment values compared to biotin controls ([2]; prey InaDl, PBM peptide bait): 0.8
Enrichment values compared to biotin controls ([2]; prey LAP2, PBM peptide bait): 1.6
Enrichment values compared to biotin controls ([2]; prey LIN7C, PBM peptide bait): 207.8
Enrichment values compared to biotin controls ([2]; prey MAGI3, PBM peptide bait): 2.1
Enrichment values compared to biotin controls ([2]; prey MPP5, PBM peptide bait): 1.9
Enrichment values compared to biotin controls ([2]; prey MPP6, PBM peptide bait): 1.8
Enrichment values compared to biotin controls ([2]; prey MPP7, PBM peptide bait): 42.8
Enrichment values compared to biotin controls ([2]; prey NHERF2, PBM peptide bait): 1.1
Enrichment values compared to biotin controls ([2]; prey NHERF, PBM peptide bait): 2.3
Enrichment values compared to biotin controls ([2]; prey PDLIM1, PBM peptide bait): 2.3
Enrichment values compared to biotin controls ([2]; prey PDLIM2, PBM peptide bait): 1.2
Enrichment values compared to biotin controls ([2]; prey PDLIM4, PBM peptide bait): 1.3
Enrichment values compared to biotin controls ([2]; prey PDLIM5, PBM peptide bait): 0.9
Enrichment values compared to biotin controls ([2]; prey PDLIM7, PBM peptide bait): 0.658
Enrichment values compared to biotin controls ([2]; prey PTPN3, PBM peptide bait): 1.3
Enrichment values compared to biotin controls ([2]; prey SCRIB, PBM peptide bait): 0.8
Enrichment values compared to biotin controls ([2]; prey SNTB2, PBM peptide bait): 9.0
Enrichment values compared to biotin controls ([2]; prey SNX27, PBM peptide bait): 0.9
Enrichment values compared to biotin controls ([2]; prey SYNJ2BP, PBM peptide bait): 21.9
Fold changes HaCat, SYNJ2BP ([2]; prey SYNJ2BP, PBM peptide bait): 21.9
Enrichment values compared to biotin controls ([2]; prey TJP1, PBM peptide bait): 3.8
Enrichment values compared to biotin controls ([2]; prey TJP2, PBM peptide bait): 0.9
Enrichment values compared to biotin controls ([2]; prey TX1B3, PBM peptide bait): 0.9
Enrichment values compared to biotin controls ([3]; prey APBA1, PBM peptide bait): 2.1
Enrichment values compared to biotin controls ([3]; prey DLG4, PBM peptide bait): 4.1
Enrichment values compared to biotin controls ([3]; prey DVL2, PBM peptide bait): 0.9
Enrichment values compared to biotin controls ([3]; prey GOPC, PBM peptide bait): 1.2
Enrichment values compared to biotin controls ([3]; prey InaDl, PBM peptide bait): 0.6
Enrichment values compared to biotin controls ([3]; prey LAP2, PBM peptide bait): 2.7
Enrichment values compared to biotin controls ([3]; prey LNX2, PBM peptide bait): 0.543
Enrichment values compared to biotin controls ([3]; prey MAGI3, PBM peptide bait): 2.1
Enrichment values compared to biotin controls ([3]; prey MPP1, PBM peptide bait): 1.4
Enrichment values compared to biotin controls ([3]; prey MPP5, PBM peptide bait): 1.1
Enrichment values compared to biotin controls ([3]; prey MPP6, PBM peptide bait): 1.2
Enrichment values compared to biotin controls ([3]; prey MPP7, PBM peptide bait): 2.8
Enrichment values compared to biotin controls ([3]; prey MYO18A, PBM peptide bait): 1.1
Enrichment values compared to biotin controls ([3]; prey PDLIM2, PBM peptide bait): 1.5
Enrichment values compared to biotin controls ([3]; prey PDLIM5, PBM peptide bait): 0.9
Enrichment values compared to biotin controls ([3]; prey PDLIM7, PBM peptide bait): 1.1
Enrichment values compared to biotin controls ([3]; prey PDZD11, PBM peptide bait): 3.0
Enrichment values compared to biotin controls ([3]; prey PSMD9, PBM peptide bait): 0.7
Enrichment values compared to biotin controls ([3]; prey SIPA1L1, PBM peptide bait): 1.1
Enrichment values compared to biotin controls ([3]; prey SIPA1L2, PBM peptide bait): 0.65
Enrichment values compared to biotin controls ([3]; prey SNTB1, PBM peptide bait): 3.6
Enrichment values compared to biotin controls ([3]; prey SNTB2, PBM peptide bait): 1.0
Enrichment values compared to biotin controls ([3]; prey SNX27, PBM peptide bait): 14.6
Enrichment values compared to biotin controls ([3]; prey SYNJ2BP, PBM peptide bait): 1.5
Enrichment values compared to biotin controls ([3]; prey TX1B3, PBM peptide bait): 1.2
